The record followed here is ChEMBL document CHEMBL1141477, “Synthesis and anticancer activity studies of cyclopamine derivatives” (Bioorg Med Chem Lett, 2008).

Calls of active or inactive are those of the source. The rule behind the calls is not given here.

The term IC50 denotes the concentration that inhibits the measured activity by half. Higher therefore signals weaker potency in that assay.

One test relates to A549. Put plainly: Anticancer activity against human A549 cells at 200 uM by MTS assay. The class given is functional, cell-based. (Formazan colour is commonly taken as a measure of viable cells.)
Regarding `CC(=O)O[C@@H]1[C@@H](OC(C)=O)[C@@H](n2cc(CN3C[C@@H](C)C[C@H]4O[C@]5(CC[C@@H]6C(=C5C)C[C@H]5[C@H]6CC=C6C[C@@H](O)CC[C@@]65C)[C@H](C)[C@@H]43)nn2)OC[C@H]1OC(C)=O`, the result was inactive.

`CC(=O)OC[C@H]1OC(n2cc(CN3C[C@@H](C)C[C@H]4O[C@]5(CC[C@@H]6C(=C5C)C[C@H]5[C@H]6CC=C6C[C@@H](O)CC[C@@]65C)[C@H](C)[C@@H]43)nn2)[C@@H](OC(C)=O)[C@@H](OC(C)=O)[C@@H]1OC(C)=O` (stereo partly specified): the outcome was inactive. Same read-out and setting: the same measure for `CC(=O)OC[C@H]1O[C@@H](n2cc(CN3C[C@@H](C)C[C@H]4O[C@]5(CC[C@@H]6C(=C5C)C[C@H]5[C@H]6CC=C6C[C@@H](O)CC[C@@]65C)[C@H](C)[C@@H]43)nn2)[C@H](OC(C)=O)[C@@H](OC(C)=O)[C@H]1OC(C)=O`: “inactive”.

On to `CC(=O)OC[C@H]1O[C@@H](n2cc(CN3C[C@@H](C)C[C@H]4O[C@]5(CC[C@@H]6C(=C5C)C[C@H]5[C@H]6CC=C6C[C@@H](O)CC[C@@]65C)[C@H](C)[C@@H]43)nn2)[C@H](OC(C)=O)[C@@H](OC(C)=O)[C@@H]1O[C@@H]1O[C@H](COC(C)=O)[C@@H](OC(C)=O)[C@H](OC(C)=O)[C@H]1OC(C)=O`, for which the result was inactive.

Turning to `CC(=O)N[C@@H]1[C@@H](OC(C)=O)[C@@H](OC(C)=O)[C@@H](COC(C)=O)O[C@H]1n1cc(CN2C[C@@H](C)C[C@H]3O[C@]4(CC[C@@H]5C(=C4C)C[C@H]4[C@H]5CC=C5C[C@@H](O)CC[C@@]54C)[C@H](C)[C@@H]32)nn1`, the outcome was inactive. The same measure, in the same setting: the entry for `CC(=O)N[C@@H]1[C@@H](OC(C)=O)[C@H](OC(C)=O)[C@@H](COC(C)=O)O[C@H]1n1cc(CN2C[C@@H](C)C[C@H]3O[C@]4(CC[C@@H]5C(=C4C)C[C@H]4[C@H]5CC=C5C[C@@H](O)CC[C@@]54C)[C@H](C)[C@@H]32)nn1` is “inactive”.

Another test has as its system A549. Briefly: Anticancer activity against human A549 cells by MTS assay. Format: functional, cell-based.
`CC(=O)O[C@@H]1[C@@H](OC(C)=O)[C@@H](OC(C)=O)C(n2cc(CN3C[C@@H](C)C[C@H]4O[C@]5(CC[C@@H]6C(=C5C)C[C@H]5[C@H]6CC=C6C[C@@H](O)CC[C@@]65C)[C@H](C)[C@@H]43)nn2)O[C@H]1C` (stereo partly specified): inhibition was half-maximal at 33 µM (IC50). Take `CC1=C2C[C@H]3[C@@H](CC=C4C[C@@H](O)CC[C@@]43C)[C@@H]2CC[C@]12O[C@@H]1C[C@H](C)CN[C@H]1[C@H]2C` [CYCLOPAMINE]: the IC50 worked out at 49 µM. Same read-out and setting: the figure for `CC(=O)OC[C@H]1O[C@@H](n2cc(CN3C[C@@H](C)C[C@H]4O[C@]5(CC[C@@H]6C(=C5C)C[C@H]5[C@H]6CC=C6C[C@@H](O)CC[C@@]65C)[C@H](C)[C@@H]43)nn2)[C@H](OC(C)=O)[C@@H](OC(C)=O)[C@@H]1OC(C)=O` is 144 µM. `CC(=O)OC[C@H]1O[C@@H](n2cc(CN3C[C@@H](C)C[C@H]4O[C@]5(CC[C@@H]6C(=C5C)C[C@H]5[C@H]6CC=C6C[C@@H](O)CC[C@@]65C)[C@H](C)[C@@H]43)nn2)[C@H](OC(C)=O)[C@@H](OC(C)=O)[C@@H]1O[C@@H]1O[C@H](COC(C)=O)[C@@H](O[C@@H]2O[C@H](COC(C)=O)[C@@H](OC(C)=O)[C@H](OC(C)=O)[C@H]2OC(C)=O)[C@H](OC(C)=O)[C@H]1OC(C)=O` came in with a half-inhibitory concentration (IC50) of 96 µM. `CC(=O)OC[C@H]1O[C@@H](O[C@H]2[C@H](OC(C)=O)[C@@H](OC(C)=O)[C@H](n3cc(CN4C[C@@H](C)C[C@H]5O[C@]6(CC[C@@H]7C(=C6C)C[C@H]6[C@H]7CC=C7C[C@@H](O)CC[C@@]76C)[C@H](C)[C@@H]54)nn3)O[C@@H]2COC(C)=O)[C@H](OC(C)=O)[C@@H](OC(C)=O)[C@H]1OC(C)=O` came in with an IC50 of 183 µM.
